Measurements as given in ChEMBL document CHEMBL1130779, “Synthesis and pharmacological activity of the stereoisomers of GP-88, a propafenone-type modulator of multidrug resistance” (Bioorg Med Chem Lett, 1998).

Tested on: CCRF-CEM/VCR-1000
Assay: MDR-modulating activity as a measure to inhibit P-glycoprotein (PGP) mediated transmembrane transport in human T-lymphoblast cell line CEM vcr 1000 using the daunomycin efflux assay
Format: functional, cell-based

| SMILES | EC50 |
| --- | --- |
| C[C@H](O)COc1ccccc1[C@@H](C)O | 1400 nM |
| C[C@H](O)c1ccccc1OC[C@@H](C)O | 580 nM |
| CCCNC[C@H](O)COc1ccccc1C(=O)CCc1ccccc1 | 370 nM |

The remaining compounds from weak to strong by EC50, led by results:

| EC50 | SMILES |
| --- | --- |
| 1560 nM | C[C@H](O)COc1ccccc1[C@H](C)O |
| 780 nM | C[C@@H](O)COc1ccccc1[C@@H](C)O |
| 260 nM | CCCNC[C@@H](O)COc1ccccc1C(=O)CCc1ccccc1 |
